Results from US11066392B2, “Inhibitors of indoleamine 2,3-dioxygenase and methods of their use” (BRISTOL-MYERS SQUIBB COMPANY, priority 2017, dated 2021).

Each molecule was assayed against indoleamine 2,3-dioxygenase (IDO) (Homo sapiens, UniProt P14902) (assay: HeLa cell-based indoleamine 2,3-dioxygenase (IDO) assay (kynurenine production, IFNγ-stimulated)). Conditions: HeLa cells, IFNγ 25 ng/mL, 48 hour incubation; read-out: IDO Hela IC50.
Sequence of indoleamine 2,3-dioxygenase (IDO) (P14902 whole entry): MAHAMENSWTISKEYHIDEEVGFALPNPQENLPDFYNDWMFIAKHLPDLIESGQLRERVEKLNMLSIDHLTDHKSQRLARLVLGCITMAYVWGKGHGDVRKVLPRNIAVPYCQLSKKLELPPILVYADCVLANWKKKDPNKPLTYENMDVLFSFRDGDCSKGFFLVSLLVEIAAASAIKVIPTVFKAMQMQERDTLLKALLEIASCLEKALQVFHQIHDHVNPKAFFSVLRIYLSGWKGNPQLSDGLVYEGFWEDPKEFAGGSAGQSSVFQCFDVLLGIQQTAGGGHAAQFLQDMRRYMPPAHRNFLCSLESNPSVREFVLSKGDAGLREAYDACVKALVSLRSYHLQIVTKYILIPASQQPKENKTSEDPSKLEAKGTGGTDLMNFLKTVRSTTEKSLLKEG

Going from CC[C@@H](NC(=O)c1ccc(OC)nc1)[C@H]1CC[C@@H](c2ccnc3c(F)cccc32)CC1 (single isomer, unassigned) [Example 59a, N-(1-(4-(8-fluoroquinolin-4-yl)cyclohexyl)propyl)-6-methoxynicotinamide] to CC[C@@H](NC(=O)c1cnc(OC)nc1)[C@H]1CC[C@@H](c2ccnc3c(F)cccc32)CC1 (single isomer, unassigned) [Example 60a, N-(1-(4-(8-fluoroquinolin-4-yl)cyclohexyl)propyl)-2-methoxypyrimidine-5-carboxamide], the IC50 rises from 100 nM to 820 nM (8.2-fold).

CC[C@@H](NC(=O)c1ccc(OC)nc1)[C@H]1CC[C@@H](c2ccnc3c(F)cccc32)CC1 (single isomer, unassigned) [Example 59c, N-(1-(4-(8-fluoroquinolin-4-yl)cyclohexyl)propyl)-6-methoxynicotinamide] and CC[C@@H](NC(=O)c1cnc(OC)nc1)[C@H]1CC[C@@H](c2ccnc3c(F)cccc32)CC1 (single isomer, unassigned) [Example 60b, N-(1-(4-(8-fluoroquinolin-4-yl)cyclohexyl)propyl)-2-methoxypyrimidine-5-carboxamide] are within 1.5-fold of each other in IC50: 330 nM for the first, 250 nM for the second.

Going from CC[C@@H](NC(=O)c1ccc(OC)nc1)[C@H]1CC[C@@H](c2ccnc3c(F)cccc32)CC1 (single isomer, unassigned) [Example 59d, N-(1-(4-(8-fluoroquinolin-4-yl)cyclohexyl)propyl)-6-methoxynicotinamide] to CC[C@@H](NC(=O)c1cnc(OC)nc1)[C@H]1CC[C@@H](c2ccnc3c(F)cccc32)CC1 (single isomer, unassigned) [Example 60c, N-(1-(4-(8-fluoroquinolin-4-yl)cyclohexyl)propyl)-2-methoxypyrimidine-5-carboxamide], the IC50 falls from 110 nM to 10 nM (11-fold). The second is the more potent here.

First: CC[C@@H](NC(=O)c1cnc(OC)nc1)[C@H]1CC[C@@H](c2ccnc3c(F)cccc32)CC1 (single isomer, unassigned) [Example 60d, N-(1-(4-(8-fluoroquinolin-4-yl)cyclohexyl)propyl)-2-methoxypyrimidine-5-carboxamide]
Second: CC[C@H](NC(=O)c1cnc(C)nc1)[C@H]1CC[C@H](c2ccnc3c(F)cccc32)CC1 (single isomer, unassigned) [Example 61b, N-(1-(4-(8-fluoroquinolin-4-yl)cyclohexyl)propyl)-2-methylpyrimidine-5-carboxamide]
The IC50 of the first is 3.9-fold lower: 170 nM for the first, 670 nM for the second.

Going from CC[C@H](NC(=O)c1cnc(C)nc1)[C@H]1CC[C@H](c2ccnc3c(F)cccc32)CC1 (single isomer, unassigned) [Example 61d, N-(1-(4-(8-fluoroquinolin-4-yl)cyclohexyl)propyl)-2-methylpyrimidine-5-carboxamide] to CCC(NC(=O)c1cnc(C)nc1)C1CCC(c2ccnc(OC)c2F)CC1 (stereo not drawn) [Example 23, N-(1-(4-(3-Fluoro-2-methoxypyridin-4-yl)cyclohexyl)propyl)-2-methylpyrimidine-5-carboxamide], the IC50 rises from 20 nM to 110 nM (5.5-fold).

Going from COc1ccc(C(=O)NC(C)C2(O)CCC(c3ccnc4ccc(F)cc34)CC2)cn1 (single isomer, unassigned) [Example 62a, N-(1-((1r,4r)-4-(6-fluoroquinolin-4-yl)-1-hydroxycyclohexyl)ethyl)-6-methoxynicotinamide] to COCC(NC(=O)c1ccc(OC)nc1)C1CCC(c2ccnc3ccc(F)cc23)CC1 (stereo not drawn) [Example 14b, N-(1-((1s,4s)-4-(6-Fluoroquinolin-4-yl)cyclohexyl)-2-methoxyethyl)-6-methoxynicotinamide], the IC50 falls from 70 nM to 10 nM (7-fold). The second is the more potent here.

COc1ccc(C(=O)NC(C)C2(O)CCC(c3ccnc4ccc(F)cc34)CC2)cn1 (single isomer, unassigned) [Example 62b, N-(1-((1r,4r)-4-(6-fluoroquinolin-4-yl)-1-hydroxycyclohexyl)ethyl)-6-methoxynicotinamide] gave an IC50 of 20 nM.

Same assay, conditions: HeLa cells; potency class; read-out: Patent Potency Hela IC50 A < 10 nM, B > 10 nM, C > 100 nM

Going from CCC(NC(=O)c1cnc(OC)nc1)C1CCC(c2ccnc3c(F)cc(F)cc23)CC1 (single isomer, unassigned) [Example 58d] to CC[C@H](NC(=O)c1cnc(C)nc1)[C@H]1CC[C@H](c2ccnc3c(F)cccc32)CC1 (single isomer, unassigned) [Example 61c, N-(1-(4-(8-fluoroquinolin-4-yl)cyclohexyl)propyl)-2-methylpyrimidine-5-carboxamide], the IC50 rises from under 10 nM to over 100 nM.

CCC(NC(=O)c1ccc(=O)[nH]c1)C1CCC(c2ccnc(OC)c2C(F)F)CC1 (single isomer, unassigned) [Example 63-1, N-(1-((1s,4s)-4-(3-(difluoromethyl)-2-methoxypyridin-4-yl)cyclohexyl)propyl)-6-oxo-1,6-dihydropyridine-3-carboxamide] and CCC(NC(=O)c1ccc(=O)[nH]c1)[C@H]1CC[C@@H](c2ccnc(OC)c2C(F)F)CC1 (stereo partly drawn) [Example 63-2, N-(1-((1s,4s)-4-(3-(difluoromethyl)-2-methoxypyridin-4-yl)cyclohexyl)propyl)-6-oxo-1,6-dihydropyridine-3-carboxamide] cannot be ordered by IC50: over 100 nM for the first, over 10 nM for the second.

CCC(NC(=O)c1ccc(OC)nc1)C1CCC(c2cc[nH]c(=O)c2C(F)F)CC1 (single isomer, unassigned) [Example 64-1, N-(1-((1s,4s)-4-(3-(difluoromethyl)-2-oxo-1,2-dihydropyridin-4-yl)cyclohexyl)propyl)-6-methoxynicotinamide] and [2H]C([2H])([2H])Oc1ccc(C(=O)NC(CC)C2CCC(c3ccnc(OC)c3C(F)F)CC2)cn1 (single isomer, unassigned) [Example 66-1, N-(1-((1s,4s)-4-(3-(difluoromethyl)-2-methoxypyridin-4-yl)cyclohexyl)propyl)-6-(methoxy-d3)nicotinamide] cannot be ordered by IC50: over 100 nM for the first, over 100 nM for the second.

First: [2H]C([2H])([2H])Oc1ccc(C(=O)NC(CC)C2CCC(c3ccnc(OC)c3C(F)F)CC2)cn1 (single isomer, unassigned) [Example 66-2, N-(1-((1s,4s)-4-(3-(difluoromethyl)-2-methoxypyridin-4-yl)cyclohexyl)propyl)-6-(methoxy-d3)nicotinamide]
Second: CCC(NC(=O)c1ccc(OC)nc1)C1CCC(c2ccnc(OC)c2F)CC1 (stereo not drawn) [Example 22, N-(1-(4-(3-Fluoro-2-methoxypyridin-4-yl)cyclohexyl)propyl)-6-methoxynicotinamide]
The IC50 of the first is lower: under 10 nM for the first, over 100 nM for the second. The first is the more potent here.

Going from CCC(NC(=O)c1ccc(OC)nc1)C1CCC(c2ccnc(F)c2C)CC1 (single isomer, unassigned) [Example 68-1, N-(1-((1r,4r)-4-(2-Fluoro-3-methylpyridin-4-yl)cyclohexyl)propyl)-6-methoxynicotinamide] to COCC(NC(=O)c1ccc(OC)nc1)C1CCC(c2ccnc3ccc(F)cc23)CC1 (stereo not drawn) [Example 14a, N-(1-((1s,4s)-4-(6-Fluoroquinolin-4-yl)cyclohexyl)-2-methoxyethyl)-6-methoxynicotinamide], the IC50 falls from over 10 nM to under 10 nM. The second is the more potent here.

For CCC(NC(=O)c1ccc(OC)nc1)C1CCC(c2ccnc(F)c2C)CC1 (single isomer, unassigned) [Example 68-2, N-(1-((1r,4r)-4-(2-Fluoro-3-methylpyridin-4-yl)cyclohexyl)propyl)-6-methoxynicotinamide], the IC50 was over 100 nM.
